These results are taken from patent US20140155445A1, “Compounds and Methods for Treating Cancer and Diseases of the Central Nervous System” (Osta Biotechnologies Inc., priority 2007, published 2014).

Structures can show the parent of a compound that is named as a salt. Where two headings read alike, the source gives them in different places. Where only a bound is given, the exact number is not on record here.

For one assay, the target named is T1, HO-1 (rat spleen) (Rattus norvegicus, UniProt P06762).
T1 construct: Spleen microsomes were used as a source of HO-1; from tissue; host or cells: spleen microsomal fraction of adult male Sprague-Dawley rats
T1 sequence (P06762 1-289): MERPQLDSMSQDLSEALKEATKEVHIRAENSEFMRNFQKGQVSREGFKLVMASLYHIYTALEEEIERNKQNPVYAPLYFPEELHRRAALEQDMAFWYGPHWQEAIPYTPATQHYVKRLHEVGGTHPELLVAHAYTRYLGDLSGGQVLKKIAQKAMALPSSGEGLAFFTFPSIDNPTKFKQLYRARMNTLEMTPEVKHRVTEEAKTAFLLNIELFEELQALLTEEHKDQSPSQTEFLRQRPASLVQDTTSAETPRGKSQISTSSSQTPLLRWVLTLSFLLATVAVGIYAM
The assay is described as follows: HO enzymatic activity in rat spleen microsomal fraction (CO formed from methemalbumin, gas chromatography). As to conditions: rat spleen microsomes; average ± standard deviation of replicate experiments; read-out: IC50 HO-1 (rat spleen)/μM. The class given is biochemical.

The next assay addresses T2, HO-2 (rat brain) (Rattus norvegicus, UniProt P23711).
T2 construct: brain microsomes were used as a source of HO-2; from tissue; host or cells: brain microsomal fraction of adult male Sprague-Dawley rats
T2 sequence (P23711 1-315): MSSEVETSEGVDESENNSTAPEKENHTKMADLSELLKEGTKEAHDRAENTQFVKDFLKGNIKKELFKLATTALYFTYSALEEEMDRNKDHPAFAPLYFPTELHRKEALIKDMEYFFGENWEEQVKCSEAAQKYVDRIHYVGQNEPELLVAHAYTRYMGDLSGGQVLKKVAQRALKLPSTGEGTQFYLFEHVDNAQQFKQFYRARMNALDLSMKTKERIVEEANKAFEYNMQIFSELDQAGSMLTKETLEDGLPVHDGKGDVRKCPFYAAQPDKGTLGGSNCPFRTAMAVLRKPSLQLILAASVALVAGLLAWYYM
The assay is described as follows: HO enzymatic activity in rat brain microsomal fraction (CO formed from methemalbumin, gas chromatography). The class given is biochemical. As to conditions: rat brain microsomes, average ± standard deviation of replicate experiments, read-out: IC50 HO-2 (rat brain)/μM.

As to `Clc1ccc(C2(Cn3ccnc3)OCCO2)cc1` [1-[2-(4-chloro-phenyl)-[1,3]dioxolan-2-ylmethyl]-1H-imidazole hydrochloride], the IC50 at HO-1 (rat spleen) was 19 ± 3 µM; at HO-2 (rat brain), greater than 100 µM.
For the compound `FC(F)(F)c1ccc(CCCCn2ccnc2)cc1` [1-[4-(4-(Trifluoromethyl)phenyl)butyl]-1H-imidazole hydrochloride], the IC50 is 0.38 ± 0.09 µM at HO-1 (rat spleen) and greater than 100 µM at HO-2 (rat brain).
Turning to `O=C(CCn1ccnc1)C12CC3CC(CC(C3)C1)C2` [1-adamantan-1-yl-3-imidazol-1-yl-propan-1-one hydrochloride], the IC50 is 3.5 ± 0.8 µM at HO-1 (rat spleen) and roughly 100 µM at HO-2 (rat brain).
`c1cn(CC23CC4CC(CC(C4)C2)C3)cn1` [1-adamantan-1-ylmethyl-1H-imidazole hydrochloride]: the IC50 on HO-1 (rat spleen) is 2.2 ± 0.5 µM; at HO-2 (rat brain), greater than 100 µM.
As for `O=C(CCCc1ccccc1)Cn1ccnc1` [1-imidazol-1-yl-5-phenyl-pentan-2-one hydrochloride], the figures for the IC50 at HO-1 (rat spleen) and at HO-2 (rat brain) were 1.5 ± 0.2 µM and 6 ± 0.1 µM, respectively.
Take `O=C(CCc1ccccc1)CCn1ccnc1` [1-imidazol-1-yl-5-phenyl-pentan-3-one hydrochloride]: the IC50 on HO-1 (rat spleen) was 28 ± 6 µM; on HO-2 (rat brain) it was 114 ± 56 µM.
Turning to `Cn1ccnc1` [1-methylimidazole hydrochloride, reference compound], the IC50 at HO-1 (rat spleen) and on HO-2 (rat brain) was greater than 100 µM throughout.
For the compound `O=C(Cn1cncn1)c1cccc2ccccc12` [1-naphthalen-1-yl-2-[1,2,4]triazol-1-yl-ethanone hydrochloride], the IC50 on HO-1 (rat spleen) is 0.79 ± 0.04 µM; on HO-2 (rat brain), 16 ± 5 µM.
Taken in the same sequence, the figures for `c1ccc(CCC2(Cn3nccn3)OCCO2)cc1` [2-(2-Phenethyl-[1,3]dioxolan-2-ylmethyl)-2H-[1,2,3]triazole] were greater than 100 µM and greater than 100 µM.
For the compound `c1ccc(CCC2(Cn3ncnn3)OCCO2)cc1` [2-(2-Phenethyl-[1,3]dioxolan-2-ylmethyl)-2H-tetrazole hydrochloride], the IC50 at HO-1 (rat spleen) was 72 ± 1 µM; on HO-2 (rat brain) it was greater than 100 µM.
Taken in the same sequence, the figures for `c1ccc(CCC2(Cn3ccnn3)OCCO2)cc1` [2-(2-phenethyl)-2-{(1H-[1,2,3]triazol-1-yl)methyl}-1,3-dioxolane hydrochloride] were greater than 100 µM and greater than 100 µM.
Taken in the same sequence, the figures for `c1ccc(CCC2(Cn3cncn3)OCCO2)cc1` [2-(2-phenethyl)-2-{(1H-[1,2,4]triazol-1-yl)methyl}-1,3-dioxolane hydrochloride] were 13 ± 2 µM and greater than 100 µM.
Take `O=C(Cn1ccnc1)c1ccc2ccc3cccc4ccc1c2c34` [2-Imidazol-1-yl-1-pyren-1-yl-ethanone hydrochloride]: the figures for the IC50 on HO-1 (rat spleen) and on HO-2 (rat brain) were 14 ± 3 µM and greater than 100 µM, respectively.
Turning to `Brc1ccc(CCC2(Cn3ccnc3)OCCO2)cc1` [2-[2-(4-bromophenyl)ethyl]-2-[(1H-imidazol-1-yl)methyl]-1,3-dioxolane hydrochloride], the IC50 is 1.9 ± 0.2 µM on HO-1 (rat spleen) and greater than 100 µM at HO-2 (rat brain) (hydrochloride).
As to `Clc1ccc(CCC2(Cn3ccnc3)OCCO2)cc1` [2-[2-(4-chlorophenyl)ethyl]-2-[(1H-imidazol-1-yl)methyl]-1,3-dioxolane hydrochloride], the IC50 at HO-1 (rat spleen) is 4 ± 2 µM; on HO-2 (rat brain) it was greater than 100 µM.
Taken in the same sequence, the figures for `c1ccc(CCC2(Cn3ccnc3)OCCO2)cc1` [2-[2-phenylethyl]-2-[(1H-imidazol-1-yl)methyl]-1,3-dioxolane hydrochloride] were 0.7 ± 0.4 µM and greater than 100 µM.
For `O=C(Cn1ccnc1)c1ccc(I)cc1` [2-imidazol-1-yl-1-(4-iodo-phenyl)ethanone], the values for the IC50 at HO-1 (rat spleen) and at HO-2 (rat brain) were 4 ± 1 µM and 25 ± 5 µM, respectively.
Take `O=C(Cn1ccnc1)c1ccc(CCc2ccccc2)cc1` [2-imidazol-1-yl-1-(4-phenethyl-phenyl)ethanone hydrochloride]: the IC50 was 4 ± 2 µM at HO-1 (rat spleen) and 0.9 ± 0.1 µM on HO-2 (rat brain).
On to `O=C(Cn1ccnc1)c1ccc2c(c1)CCCC2` [2-imidazol-1-yl-1-(5,6,7,8-tetrahydro-naphthalen-2-yl)-ethanone hydrochloride], for which the values for the IC50 at HO-1 (rat spleen) and on HO-2 (rat brain) were 4 ± 1 µM and 6.7 ± 0.3 µM, respectively.
Turning to `O=C(Cn1ccnc1)c1ccc2c(c1)CCC2` [2-imidazol-1-yl-1-indan-5-yl-ethanone hydrochloride], the IC50 on HO-1 (rat spleen) turned out to be 4.6 ± 0.1 µM; at HO-2 (rat brain), 37 ± 9 µM.
Consider `c1ccc2c(CCn3ccnc3)c[nH]c2c1` [3-[2-(1H-Imidazol-1-yl)-ethyl]-1H-indole hydrochloride], for which the IC50 on HO-1 (rat spleen) was 40 ± 7 µM; on HO-2 (rat brain), greater than 100 µM.
Taken in the same sequence, the figures for `O=C(CCn1ccnc1)C(c1ccccc1)c1ccccc1` [4-(1H-Imidazol-1-yl)-1,1-diphenyl-butan-2-one hydrochloride] were 2.6 ± 0.1 µM and 2.2 ± 0.2 µM.
Taken in the same sequence, the figures for `O=C(CCc1ccc(OC(=O)c2ccccc2)cc1)Cn1ccnc1` [4-(4-(1H-Imidazol-1-yl)-3-oxobutyl)phenyl benzoate hydrochloride] were 6.7 ± 0.2 µM and greater than 100 µM.
For `O=C(CCc1ccc(C(F)(F)F)cc1)Cn1ccnc1` [4-(4-(Trifluoromethyl)phenyl)-1-(1H-imidazol-1-yl)-2-butanone hydrochloride], the IC50 turned out to be 0.25 ± 0.01 µM at HO-1 (rat spleen) and 1.4 ± 0.1 µM on HO-2 (rat brain).
For `O=C(CCc1ccc(O)cc1)Cn1ccnc1` [4-(4-Hydroxyphenyl)-1-(1H-imidazol-1-yl)butan-2-one hydrochloride], the IC50 on HO-1 (rat spleen) and on HO-2 (rat brain) was greater than 100 µM in each case.
For the compound `OC(CCc1ccc(Cl)cc1)Cn1ccnc1` (stereo not shown) [4-(4-chlorophenyl)-1-(1H-imidazol-1-yl)butan-2-ol hydrochloride], the IC50 worked out at 0.5 ± 0.1 µM at HO-1 (rat spleen) and 4 ± 0.6 µM on HO-2 (rat brain).
In the case of `Clc1ccc(CCCCn2ccnc2)cc1` [4-(4-chlorophenyl)-1-(1H-imidazol-1-yl)butane hydrochloride], the IC50 at HO-1 (rat spleen) was determined as 0.47 ± 0.05 µM; at HO-2 (rat brain), 4 ± 2 µM.
As for `O=C(CCc1ccc(I)cc1)Cn1ccnc1` [4-(4-iodophenyl)-1-(1H-imidazol-1-yl)butan-2-one hydrochloride], the IC50 at HO-1 (rat spleen) was 0.11 ± 0.06 µM; at HO-2 (rat brain), 1.8 ± 0.7 µM.
Taken in the same sequence, the figures for `CC(C)(C)c1ccc(CCC(=O)Cn2ccnc2)cc1` [4-(4-tert-Butyl-phenyl)-1-(1H-imidazol-1-yl)-butan-2-one hydrochloride] were 0.2 ± 0.03 µM and 0.9 ± 0.2 µM.
In the case of `O=C(CCc1ccccc1)Cn1cnc(-c2ccccc2)n1` [4-Phenyl-1-(3-phenyl-[1,2,4]triazol-1-yl)-butan-2-one], the figures for the IC50 at HO-1 (rat spleen) and at HO-2 (rat brain) were 9 ± 2 µM and 90 ± 33 µM, respectively.
Turning to `O=C(CCc1ccccc1)Cn1nnnc1-c1ccccc1` [4-Phenyl-1-(5-phenyl-tetrazol-1-yl)-butan-2-one], the IC50 on HO-1 (rat spleen) and at HO-2 (rat brain) was greater than 100 µM in each case.
For the compound `O=C(CCc1ccccc1)Cn1nnc(-c2ccccc2)n1` [4-Phenyl-1-(5-phenyl-tetrazol-2-yl)-butan-2-one], the IC50 on HO-1 (rat spleen) and on HO-2 (rat brain) was greater than 100 µM throughout.
As to `O=C(CCc1ccccc1)Cn1ccnc1-c1ccccc1` [4-phenyl-1-(2-phenyl-imidazol-1-yl)butan-2-one hydrochloride], the IC50 on HO-1 (rat spleen) and on HO-2 (rat brain) was greater than 100 µM in each case.
In the case of `Clc1ccc(OCCCCCNc2nc3ccccc3[nH]2)cc1` [(1H-Benzoimidazol-2-yl)-[5-(4-chloro-phenoxy)-pentyl]-amine], the IC50 at HO-1 (rat spleen) was roughly 98 µM; at HO-2 (rat brain), roughly 105 µM.
As to `[N-]=[N+]=NC[C@@H]1CO[C@@](CCc2ccc(Cl)cc2)(Cn2ccnc2)O1` [(2R,4R)-1-{4-azidomethyl-2-[2-(4-chloro-phenyl)-ethyl]-[1,3]dioxolan-2-ylmethyl}-1H-imidazole], the IC50 on HO-1 (rat spleen) is 3.6 ± 0.2 µM; at HO-2 (rat brain) it was 38 ± 5 µM.
With `OC[C@@H]1CO[C@@](CCc2ccc(Cl)cc2)(Cn2ccnc2)O1` [(2R,4R)-2-[2-(4-chlorophenyl)ethyl]-2-[(1H-imidazol-1-yl)methyl]-4-(hydroxymethyl)-1,3-dioxolane hydrochloride], the results for the IC50 at HO-1 (rat spleen) and on HO-2 (rat brain) were 12 ± 2 µM and greater than 100 µM, respectively.
In the case of `Clc1ccc(CC[C@@]2(Cn3ccnc3)OC[C@@H](Cn3ccnc3)O2)cc1` [(2R,4R)-2-[2-(4-chlorophenyl)ethyl]-2-[(1H-imidazol-1-yl)methyl]-4-[(1H-imidazol-1-yl)methyl]-1,3-dioxolane dihydrochloride], the IC50 was 10 ± 6 µM at HO-1 (rat spleen) and 26 ± 3 µM on HO-2 (rat brain).
Consider `C[C@@H]1CO[C@@](CCc2ccc(Cl)cc2)(Cn2ccnc2)O1` [(2R,4R)-2-[2-(4-chlorophenyl)ethyl]-2-[(1H-imidazol-1-yl)methyl]-4-methyl-1,3-dioxolane hydrochloride], for which the IC50 is 0.8 ± 0.2 µM at HO-1 (rat spleen) and 305 ± 25 µM at HO-2 (rat brain).
